In patent US9833497B2, “Human originated EGF domain proteins and use of the same” (CHENGDU SOURCEBIO LIMITED-LIABILITY COMPANY, priority 2013, dated 2017):

Assays:
Type in all cases: cell-based
E. coli DH5α = test: Antibacterial activity: MIC and growth curve against E. coli DH5α in 96-well plate; conditions: minimal inhibitory concentration against E. coli DH5α; 96-well plate, 5×10^5 CFU/mL, 37° C., judged after 8 h
Summary of the method: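 MIC taken as lowest protein level with no bacterial growth, tracked by A600 every 30 min during 37 °C, 175 rpm culture. Two-fold protein series 50-12.5 μg/mL final, triplicate wells, against 5×10^5 CFU/mL of LB-washed mid-log cells.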

E. coli BL21 = test: MIC against Gram-negative bacteria: E. coli BL21; conditions: for MIC E. coli BL21 / MIC against E. coli BL21 / MIC (μg/mL) E. coli BL21: 5×10^5 CFU/mL
Summary of the method: (§1)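 Bacteria grown in LB at 37° C with shaking to McFarland 0.5, pelleted and resuspended in fresh LB, then seeded at 5×10^5 CFU/mL per well. Purified recombinant human EGF domain proteins were two-fold serially diluted in triplicate and plates shaken at 37° C, 175 rpm. MIC is the lowest protein concentration with no bacterial growth.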

Pseudomonas aeruginosa = test: MIC against Gram-negative bacteria: Pseudomonas aeruginosa; conditions: for MIC P. aeruginosa / MIC against P. aeruginosa / MIC (μg/mL) P. aeruginosa: 5×10^5 CFU/mL
Summary of the method: as §1

Klebsiella pneumonia = test: MIC against Gram-negative bacteria: Klebsiella pneumonia; conditions: for MIC K. pneumonia / MIC against K. pneumonia / MIC (μg/mL) K. pneumonia: 5×10^5 CFU/mL
Summary of the method: as §1

Enterobacter cloacae = test: MIC against Gram-negative bacteria: Enterobacter cloacae; conditions: for MIC E. cloacae / MIC against E. cloacae / MIC (μg/mL) E. cloacae: 5×10^5 CFU/mL
Summary of the method: as §1

Aeromonas hydrophila = test: MIC against Gram-negative bacteria: Aeromonas hydrophila; conditions: for MIC A. hydrophila / MIC against A. hydrophila / MIC (μg/mL) A. hydrophila: 5×10^5 CFU/mL
Summary of the method: as §1

Citrobacter diversus = test: MIC against Gram-negative bacteria: Citrobacter diversus; conditions: for MIC C. diversus / MIC against C. diversus / MIC (μg/mL) C. diversus: 5×10^5 CFU/mL
Summary of the method: as §1

Moraxella catarrhalis = test: MIC against Gram-negative bacteria: Moraxella catarrhalis; conditions: for MIC M. catarrhalis / MIC against M. catarrhalis / MIC (μg/mL) M. catarrhalis: 5×10^5 CFU/mL
Summary of the method: as §1

Proteus mirabilis = test: MIC against Gram-negative bacteria: Proteus mirabilis; conditions: for MIC P. mirabilis / MIC against P. mirabilis / MIC (μg/mL) P. mirabilis: 5×10^5 CFU/mL
Summary of the method: as §1

Proteus vulgaris = test: MIC against Gram-negative bacteria: Proteus vulgaris; conditions: for MIC P. vulgaris / MIC against P. vulgaris / MIC (μg/mL) P. vulgaris: 5×10^5 CFU/mL
Summary of the method: as §1

Serratia marcescens = test: MIC against Gram-negative bacteria: Serratia marcescens; conditions: for MIC S. marcescens / MIC against S. marcescens / MIC (μg/mL) S. marcescens: 5×10^5 CFU/mL
Summary of the method: as §1

[1] = E. coli BL21, 10 h cultivation at 37° C.
[2] = P. aeruginosa, 10 h cultivation at 37° C.
[3] = K. pneumonia, 10 h cultivation at 37° C.
[4] = E. cloacae, 10 h cultivation at 37° C.
[5] = A. hydrophila, 10 h cultivation at 37° C.
[6] = C. diversus, 10 h cultivation at 37° C.
[7] = M. catarrhalis, 10 h cultivation at 37° C.
[8] = P. mirabilis, 10 h cultivation at 37° C.
[9] = P. vulgaris, 10 h cultivation at 37° C.
[10] = S. marcescens, 10 h cultivation at 37° C.
[11] = 10 h cultivation at 37° C., two-fold serial dilution

Substance: PRT663 (DVNECDDLNGPAVLCVHGYCENTEGSYRCHCSPGYVAEAGPPHCT; listed as Homo sapiens)
- MIC (E. coli DH5α): 100 µg/mL
- MIC E. coli BL21 (E. coli BL21; 96-well plate, 37° C., 10 h): 25 µg/mL
- MIC P. aeruginosa (Pseudomonas aeruginosa; 96-well plate, 37° C., 10 h): 50 µg/mL
- MIC K. pneumonia (Klebsiella pneumonia; 96-well plate, 37° C., 10 h): 25 µg/mL
- MIC E. cloacae (Enterobacter cloacae; 96-well plate, 37° C., 10 h): 12.5 µg/mL
- MIC A. hydrophila (Aeromonas hydrophila; 96-well plate, 37° C., 10 h): 25 µg/mL
- MIC C. diversus (Citrobacter diversus; 96-well plate, 37° C., 10 h): 50 µg/mL
- MIC M. catarrhalis (Moraxella catarrhalis; 96-well plate, 37° C., 10 h): 12.5 µg/mL
- MIC P. mirabilis (Proteus mirabilis; 96-well plate, 37° C., 10 h): 25 µg/mL
- MIC P. vulgaris (Proteus vulgaris; 96-well plate, 37° C., 10 h): 50 µg/mL
- MIC S. marcescens (Serratia marcescens; 96-well plate, 37° C., 10 h): 12.5 µg/mL

Substance: PRT541 (CSCDLRGTLGGVAECQPGTGQCFCKPHVCGQACASCKDGFFGLDQADYFGCRS; listed as Homo sapiens)
- MIC (E. coli DH5α): 12.5 µg/mL
- MIC against E. coli BL21 (E. coli BL21; 96-well plate, 37° C., 10 h): 50 µg/mL
- MIC against P. aeruginosa (Pseudomonas aeruginosa; 96-well plate, 37° C., 10 h): 100 µg/mL
- MIC against K. pneumonia (Klebsiella pneumonia; 96-well plate, 37° C., 10 h): 50 µg/mL
- MIC against E. cloacae (Enterobacter cloacae; 96-well plate, 37° C., 10 h): 12.5 µg/mL
- MIC against A. hydrophila (Aeromonas hydrophila; 96-well plate, 37° C., 10 h): 50 µg/mL
- MIC against C. diversus (Citrobacter diversus; 96-well plate, 37° C., 10 h): 12.5 µg/mL
- MIC against M. catarrhalis (Moraxella catarrhalis; 96-well plate, 37° C., 10 h): 50 µg/mL
- MIC against P. mirabilis (Proteus mirabilis; 96-well plate, 37° C., 10 h): 12.5 µg/mL
- MIC against P. vulgaris (Proteus vulgaris; 96-well plate, 37° C., 10 h): 25 µg/mL
- MIC against S. marcescens (Serratia marcescens; 96-well plate, 37° C., 10 h): 50 µg/mL

Substance: PRT865 (CSCHPVGSAVLPANSVTFCDPSNGDCPCKPGVAGRRCDRCMVGYWGFGDYGCRP; listed as Homo sapiens)
- MIC (E. coli DH5α): 25 µg/mL
- MIC (μg/mL) E. coli BL21 (E. coli BL21; [1]): 12.5 µg/mL
- MIC (μg/mL) P. aeruginosa (Pseudomonas aeruginosa; [2]): 25 µg/mL
- MIC (μg/mL) K. pneumonia (Klebsiella pneumonia; [3]): 50 µg/mL
- MIC (μg/mL) E. cloacae (Enterobacter cloacae; [4]): 12.5 µg/mL
- MIC (μg/mL) A. hydrophila (Aeromonas hydrophila; [5]): 50 µg/mL
- MIC (μg/mL) C. diversus (Citrobacter diversus; [6]): 12.5 µg/mL
- MIC (μg/mL) M. catarrhalis (Moraxella catarrhalis; [7]): 50 µg/mL
- MIC (μg/mL) P. mirabilis (Proteus mirabilis; [8]): 25 µg/mL
- MIC (μg/mL) P. vulgaris (Proteus vulgaris; [9]): 12.5 µg/mL
- MIC (μg/mL) S. marcescens (Serratia marcescens; [10]): 12.5 µg/mL

Substance: PRT882 (SAKQCDSYPCKNNAVCKDGWNRFICDCTGTGYWGRTCE; listed as Homo sapiens)
- MIC (E. coli DH5α): 25 µg/mL
- MIC (μg/mL) E. coli BL21 (E. coli BL21; [1]): 12.5 µg/mL
- MIC (μg/mL) P. aeruginosa (Pseudomonas aeruginosa; [2]): 25 µg/mL
- MIC (μg/mL) K. pneumonia (Klebsiella pneumonia; [3]): 12.5 µg/mL
- MIC (μg/mL) E. cloacae (Enterobacter cloacae; [4]): 25 µg/mL
- MIC (μg/mL) A. hydrophila (Aeromonas hydrophila; [5]): 100 µg/mL
- MIC (μg/mL) C. diversus (Citrobacter diversus; [6]): 50 µg/mL
- MIC (μg/mL) M. catarrhalis (Moraxella catarrhalis; [7]): 12.5 µg/mL
- MIC (μg/mL) P. mirabilis (Proteus mirabilis; [8]): 50 µg/mL
- MIC (μg/mL) P. vulgaris (Proteus vulgaris; [9]): 12.5 µg/mL
- MIC (μg/mL) S. marcescens (Serratia marcescens; [10]): 50 µg/mL

Substance: PRT1430 (DINECAHADPCFPGSSCINTMPGFHCEACPRGYKGTQVS; listed as Homo sapiens)
- MIC (E. coli DH5α): 25 µg/mL
- MIC against E. coli BL21 (E. coli BL21; [1]): 12.5 µg/mL
- MIC against P. aeruginosa (Pseudomonas aeruginosa; Pseudomonas aeruginosa, 10 h cultivation at 37° C.): 25 µg/mL
- MIC against K. pneumonia (Klebsiella pneumonia; Klebsiella pneumonia, 10 h cultivation at 37° C.): 12.5 µg/mL
- MIC against E. cloacae (Enterobacter cloacae; Enterobacter cloacae, 10 h cultivation at 37° C.): 25 µg/mL
- MIC against A. hydrophila (Aeromonas hydrophila; Aeromonas hydrophila, 10 h cultivation at 37° C.): 12.5 µg/mL
- MIC against C. diversus (Citrobacter diversus; Citrobacter diversus, 10 h cultivation at 37° C.): 25 µg/mL
- MIC against M. catarrhalis (Moraxella catarrhalis; Moraxella catarrhalis, 10 h cultivation at 37° C.): 12.5 µg/mL
- MIC against P. mirabilis (Proteus mirabilis; Proteus mirabilis, 10 h cultivation at 37° C.): 25 µg/mL
- MIC against P. vulgaris (Proteus vulgaris; Proteus vulgaris, 10 h cultivation at 37° C.): 12.5 µg/mL
- MIC against S. marcescens (Serratia marcescens; Serratia marcescens, 10 h cultivation at 37° C.): 25 µg/mL

Substance: PRT929 (QIDECYSSPCLNDGRCIDLVNGYQCNCQPGTSGVNCE; listed as Homo sapiens)
- MIC (E. coli DH5α): 100 µg/mL
- MIC (E. coli BL21; [1]): 25 µg/mL
- MIC (Pseudomonas aeruginosa; [2]): 12.5 µg/mL
- MIC (Klebsiella pneumonia; [3]): 25 µg/mL
- MIC (Enterobacter cloacae; [4]): 50 µg/mL
- MIC (Aeromonas hydrophila; [5]): 25 µg/mL
- MIC (Citrobacter diversus; [6]): 12.5 µg/mL
- MIC (Moraxella catarrhalis; [7]): 50 µg/mL
- MIC (Proteus mirabilis; [8]): 12.5 µg/mL
- MIC (Proteus vulgaris; [9]): 50 µg/mL
- MIC (Serratia marcescens; [10]): 12.5 µg/mL

Substance: PRT1098 (DIDNCQSHQCANGATCISHTNGYSCLCFGNFTGKFCR; listed as Homo sapiens)
- MIC (E. coli DH5α): 12.5 µg/mL
- MIC E. coli BL21 (E. coli BL21; [11]): 12.5 µg/mL
- MIC P. aeruginosa (Pseudomonas aeruginosa; [11]): 12.5 µg/mL
- MIC K. pneumonia (Klebsiella pneumonia; [11]): 12.5 µg/mL
- MIC E. cloacae (Enterobacter cloacae; [11]): 12.5 µg/mL
- MIC A. hydrophila (Aeromonas hydrophila; [11]): 25 µg/mL
- MIC C. diversus (Citrobacter diversus; [11]): 12.5 µg/mL
- MIC M. catarrhalis (Moraxella catarrhalis; [11]): 25 µg/mL
- MIC P. mirabilis (Proteus mirabilis; [11]): 12.5 µg/mL
- MIC P. vulgaris (Proteus vulgaris; [11]): 25 µg/mL
- MIC S. marcescens (Serratia marcescens; [11]): 50 µg/mL
